The source of these data is PubChem BioAssay AID1963856 (Molecular Pharmacology Branch, DTP, NCI, 2024).

This test concerns LG0567-F671-PDC KRAS tumor spheroid viability. Put plainly: Anticancer human tumor LG0567-F671-PDC patient-derived lung adenocarcinoma cell line growth inhibition [KRAS2]. The following applies: spheroids with HUVEC and MSC; for viability, T/C: stronger effect = lower value. In a few lines:
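KRAS-mutant tumor cells were grown as spheroids with HUVEC endothelial cells and human MSCs as stroma. Targeted agents were tested alone and with KRAS pathway inhibitors. Doses started at or near clinical Cmax, or 10 microM, descending half-log.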

Where [1] appears, read: curve of first compound, second compound 0.1 µM.
[2] abbreviates: curve of first compound, second compound 0.316 µM.
[3] abbreviates: curve of first compound, second compound 1 µM.
The mark [4] stands for this setting: curve of first compound, second compound 3.16 µM.
Setting [5] is: second compound 0.1 µM, first compound 0.0316 µM.
[6] abbreviates: second compound 0.1 µM, first compound 0.1 µM.
The mark [7] stands for this setting: second compound 0.1 µM, first compound 0.316 µM.
[8] abbreviates: second compound 0.1 µM, first compound 1 µM.
Setting [9] is: second compound 0.1 µM, first compound 3.16 µM.
[10] abbreviates: second compound 0.316 µM, first compound 0.0316 µM.
Where [11] appears, read: second compound 0.316 µM, first compound 0.1 µM.
[12] abbreviates: second compound 0.316 µM, first compound 0.316 µM.
Where [13] appears, read: second compound 0.316 µM, first compound 1 µM.
Where [14] appears, read: second compound 0.316 µM, first compound 3.16 µM.
The mark [15] stands for this setting: second compound 1 µM, first compound 0.0316 µM.
The mark [16] stands for this setting: second compound 1 µM, first compound 0.1 µM.
Where [17] appears, read: second compound 1 µM, first compound 0.316 µM.
Where [18] appears, read: second compound 1 µM, first compound 1 µM.
Setting [19] is: second compound 1 µM, first compound 3.16 µM.
Setting [20] is: second compound 3.16 µM, first compound 0.0316 µM.
Where [21] appears, read: second compound 3.16 µM, first compound 0.1 µM.
Where [22] appears, read: second compound 3.16 µM, first compound 0.316 µM.
[23] abbreviates: second compound 3.16 µM, first compound 1 µM.
Setting [24] is: second compound 3.16 µM, first compound 3.16 µM.

The term IC50 denotes the concentration needed to halve the response being measured. The viability, T/C is the result in the treated group divided by that in the control group, in per cent.
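Also: drug exposure lasted seven days after spheroids formed for three days.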
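For viability, T/C in this document: 100% = DMSO vehicle control viability.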

On to `CC(=O)OC12COC1CC(O)C1(C)C(=O)C(O)C3=C(C)C(OC(=O)C(O)C(NC(=O)OC(C)(C)C)c4ccccc4)CC(O)(C(OC(=O)c4ccccc4)C21)C3(C)C` (stereo unspecified) + C=CC(=O)N1CCN(c2nc(OCC3CCCN3C)nc3c2CCN(c2cccc4cccc(C)c24)C3)CC1CC#N, for which the IC50 was below 10 nM (curve of first compound, second compound 0.0316 µM); below 10 nM under setting [1]; below 10 nM under setting [2]; below 10 nM under setting [3]; below 10 nM under setting [4]. The viability, T/C was 18.9% (second compound 0.0316 µM, first compound 0.01 µM); 16.2% (second compound 0.0316 µM, first compound 0.0316 µM); 18.9% (second compound 0.0316 µM, first compound 0.1 µM); 21.9% (second compound 0.0316 µM, first compound 0.316 µM); 22.9% (second compound 0.0316 µM, first compound 1 µM); 19.9% (second compound 0.0316 µM, first compound 3.16 µM). For the same molecule, the viability, T/C by setting is: (second compound 0.1 µM, first compound 0.01 µM) 14.5%; under setting [5], 13.2%; under setting [6], 16.1%; under setting [7], 16.5%; under setting [8], 19.4%; under setting [9], 15.8%. The viability, T/C is 15.8% (second compound 0.316 µM, first compound 0.01 µM); 13.9% under setting [10]; 15.7% under setting [11]; 13.8% under setting [12]; 16.9% under setting [13]; 14.7% under setting [14]. Besides, the viability, T/C (second compound 1 µM, first compound 0.01 µM) is 16.6%; the viability, T/C under setting [15] is 15.4%; the viability, T/C under setting [16] is 15.9%; the viability, T/C under setting [17] was 15.3%; the viability, T/C under setting [18] was 16.8%; the viability, T/C under setting [19] was 14.4%. Also, the viability, T/C reads like this: (second compound 3.16 µM, first compound 0.01 µM) 40.1%; under setting [20], 37.1%; under setting [21], 25.7%; under setting [22], 36.4%; under setting [23], 33.6%; under setting [24], 36.6%.

Regarding `CC(=O)Nc1cccc(-n2c(=O)n(C3CC3)c(=O)c3c(Nc4ccc(I)cc4F)n(C)c(=O)c(C)c32)c1`, the viability, T/C reads like this: (compound 0.0001 µM) 80.8% [middle of 5 runs]; (compound 0.000316 µM) 63.3% [middle of 5 runs]; (compound 0.001 µM) 55.2% [middle of 5 runs]; (compound 0.00316 µM) 50.8% [middle of 5 runs]; (compound 0.01 µM) 38.5% [middle of 5 runs]; (compound 0.0316 µM) 15.6% [middle of 5 runs]. For the setting “curve of compound”, the IC50 is 2.56 nM [middle of 5 runs].

`COC(=O)c1ccc2c(C(=Nc3ccc(N(C)C(=O)CN4CCN(C)CC4)cc3)c3ccccc3)c(O)[nH]c2c1` + CNCc1ccccc1-c1csc(C(C)Nc2nc(C)nc3cc(OC)c(OC)cc23)c1: the IC50 is above 10000 nM under setting [1]; below 31.6 nM under setting [2]; 426 nM under setting [3]; below 31.6 nM under setting [4]; below 31.6 nM (curve of first compound, second compound 10 µM). For the same molecule, the viability, T/C runs as follows: under setting [5], 66.3%; under setting [6], 57.4%; under setting [7], 57.2%; under setting [8], 59.2%; under setting [9], 65.4%; (second compound 0.1 µM, first compound 10 µM) 56.4%. Further, the viability, T/C was 50.6% under setting [10]; 45.5% under setting [11]; 39.7% under setting [12]; 53.6% under setting [13]; 29.4% under setting [14]; 41.7% (second compound 0.316 µM, first compound 10 µM). In addition, the viability, T/C by setting is: under setting [15], 52.5%; under setting [16], 48.5%; under setting [17], 52.8%; under setting [18], 46.9%; under setting [19], 2.38%; (second compound 1 µM, first compound 10 µM) 3.49%. Further, the viability, T/C by setting is: under setting [20], 1.05%; under setting [21], 2.43%; under setting [22], 0.68%; under setting [23], 0.71%; under setting [24], 0.64%; (second compound 3.16 µM, first compound 10 µM) 0.52%. Also, the viability, T/C was 1.55% (second compound 10 µM, first compound 0.0316 µM); 1.48% (second compound 10 µM, first compound 0.1 µM); 2.71% (second compound 10 µM, first compound 0.316 µM); 2.27% (second compound 10 µM, first compound 1 µM); 0.69% (second compound 10 µM, first compound 3.16 µM); 0.4% (second compound 10 µM, first compound 10 µM).

Turning to `CC1COCCN1c1cc(-c2ccnn2C)c2ccnc(-c3ccn[nH]3)c2n1` (stereo unspecified), the viability, T/C (compound 0.01 µM) is 101% [middle of 5 runs] and the viability, T/C (compound 0.316 µM) is 74% [middle of 5 runs].

Consider `CCN1CCN(Cc2ccc(Nc3ncc(F)c(-c4cc(F)c5nc(C)n(C(C)C)c5c4)n3)nc2)CC1`, for which the viability, T/C reads like this: (compound 0.00316 µM) 97.6% [middle of 5 runs]; (compound 0.01 µM) 93.7% [middle of 5 runs]; (compound 0.0316 µM) 76.9% [middle of 5 runs]; (compound 0.1 µM) 71% [middle of 5 runs]; (compound 0.316 µM) 70.9% [middle of 5 runs]; (compound 1 µM) 65.2% [middle of 5 runs]. The IC50 (curve of compound) is above 1000 nM.
